Earlier results as cited in patent publication US20180298405A1, “METHODS AND COMPOSITIONS TO INCREASE HUMAN SOMATIC CELL NUCLEAR TRANSFER (SCNT) EFFICIENCY BY REMOVING HISTONE H3-LYSINE TRIMETHYLATION, AND DERIVATION OF HUMAN NT-ESC” (CHILDREN'S MEDICAL CENTER CORPORATION, priority 2015, published 2018).

Tested on: SETDB1 H3K9me3 HMTase; H3K27me3 and H3K9me3
Details: Lee et al., 2013; cited from earlier work

Nc1nccc2c1ncn2[C@@H]1C=C(CO)[C@@H](O)[C@H]1O [3-Deazaneplanocin A]
effect on H3K27me3 and H3K9me3 levels: reduced levels of both H3K27me3 and H3K9me3 | effect on SETDB1 H3K9me3 HMTase: decrease of SETDB1 H3K9me3 HMTase
